# Active and inactive are the calls of the source.
# Columns and labels:
# [1] = non-specific 3'UTR reporter inhibition in Clone20-Shn3RL – cell-based, Renilla luciferase, cherry-picked, counter-screen for Shn3 inhibitor project, dose response (AID 624133); type: functional
# [2] = loss of viability in HepG2 cells – cell-based, CellTiter-Glo, cherry-picked, cytotoxicity control for Shn3 inhibitor project, dose response (AID 624134); type: functional
# [3] = reduction of Shn3 3'UTR-driven luciferase in osteoblasts – cell-based, Clone20 osteoblasts, firefly luciferase, cherry-picked, dose response (AID 624132); type: functional;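 also: firefly luciferase luminescence from reporter carrying the Shn3 3'UTR in osteoblasts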
# [4] = Counterscreen for IDE inhibitors: Luminescence-based cell-based high throughput dose response assay to identify compounds that are cytotoxic to HEK cells. [Related pubchem assays: 434962 (Primary screen (IDE inhibitors in singlicate)), 449730 (Counterscreen (Cytotoxicity in triplicate)), 435028 (Confirmation (IDE inhibitors in triplicate)) …; type: functional; settings: HEK293
# Insulin-degrading enzyme = biological target: T1, Insulin-degrading enzyme (Homo sapiens, UniProt P14735); test: Dose Response: Fluorescence polarization-based cell-based high throughput dose response assay for inhibitors of insulin-degrading enzyme (IDE). [Related pubchem assays: 434962 (Primary screen (IDE inhibitors in singlicate)), 449730 (Counterscreen (Cytotoxicity in triplicate)), 435028 (Confirmation (IDE inhibitors in triplicate)), 434984 (Summary …; type: functional
# T1 sequence (P14735 whole entry): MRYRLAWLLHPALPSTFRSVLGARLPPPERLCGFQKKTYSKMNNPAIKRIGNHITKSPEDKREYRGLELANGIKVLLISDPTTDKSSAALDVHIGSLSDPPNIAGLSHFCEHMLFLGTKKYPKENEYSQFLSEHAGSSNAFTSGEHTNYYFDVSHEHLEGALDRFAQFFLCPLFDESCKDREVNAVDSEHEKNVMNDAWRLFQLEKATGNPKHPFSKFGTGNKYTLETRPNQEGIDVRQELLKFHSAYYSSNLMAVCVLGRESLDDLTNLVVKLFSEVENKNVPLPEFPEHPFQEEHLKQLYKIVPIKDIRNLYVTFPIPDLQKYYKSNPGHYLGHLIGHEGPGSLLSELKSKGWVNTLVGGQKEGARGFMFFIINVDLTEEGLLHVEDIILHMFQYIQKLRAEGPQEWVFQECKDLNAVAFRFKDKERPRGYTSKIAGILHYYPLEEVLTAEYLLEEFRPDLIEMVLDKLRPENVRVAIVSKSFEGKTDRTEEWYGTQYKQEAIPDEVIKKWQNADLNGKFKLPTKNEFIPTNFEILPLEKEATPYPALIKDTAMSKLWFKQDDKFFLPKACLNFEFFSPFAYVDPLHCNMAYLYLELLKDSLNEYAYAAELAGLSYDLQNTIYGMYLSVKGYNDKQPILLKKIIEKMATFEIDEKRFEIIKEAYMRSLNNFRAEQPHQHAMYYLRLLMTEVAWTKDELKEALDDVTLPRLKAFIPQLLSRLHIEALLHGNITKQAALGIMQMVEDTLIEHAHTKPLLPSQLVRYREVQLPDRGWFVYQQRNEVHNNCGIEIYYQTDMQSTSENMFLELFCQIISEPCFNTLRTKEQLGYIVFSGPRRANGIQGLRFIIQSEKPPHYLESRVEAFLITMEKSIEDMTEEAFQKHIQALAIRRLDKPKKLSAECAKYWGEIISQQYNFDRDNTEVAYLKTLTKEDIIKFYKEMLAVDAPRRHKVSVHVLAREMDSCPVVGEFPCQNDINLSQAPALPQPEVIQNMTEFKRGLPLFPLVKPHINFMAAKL
# [5] = viability of PTEN-deleted HCT116 cells – cell-based, HCT116 PTEN knockout, dose response (AID 1047); type: functional;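 also: HCT116 colon tumor cells with PTEN knocked out; cells exposed to compound for 60 hours before readout; potency for loss of cell viability measured by luminescence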
# [6] = viability of HCT116 lacking mutant beta-catenin – cell-based, human colon tumor, dose response (AID 1045); type: functional;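 also: HCT116 colon tumor cells with beta catenin knocked out; cells exposed to compound for 60 hours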
# [7] = intracellular Trypanosoma cruzi inhibitors in host cells – cell-based, plate reader, cherry-pick samples, set 3, dose response (AID 651818); type: functional;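 also: compounds incubated with infected cells for about four days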
# [8] = biological target: Heat shock protein HSP 90-alpha (Homo sapiens, UniProt P07900); type: functional, organism-based
# [9] = biological target: FAD-linked sulfhydryl oxidase ALR (Homo sapiens, UniProt P55789); test: ALR-catalysed DTT oxidation blockers – biochemical, H2O2 detection, luminescence, cherry-pick, dose response (AID 493248)
# FAD-linked sulfhydryl oxidase ALR, sequence (P55789 whole entry): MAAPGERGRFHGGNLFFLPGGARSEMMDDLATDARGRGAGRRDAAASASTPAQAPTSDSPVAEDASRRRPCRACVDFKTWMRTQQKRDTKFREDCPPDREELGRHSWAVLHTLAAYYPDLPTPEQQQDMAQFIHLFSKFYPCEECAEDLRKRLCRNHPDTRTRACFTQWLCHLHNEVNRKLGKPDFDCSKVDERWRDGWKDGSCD
# [10] = microbe, parasite or virus in culture; type: functional; settings: Mycobacterium tuberculosis
# [11] = biological target: T2, Rac GTPase-activating protein 1 (Homo sapiens, UniProt Q9H0H5); test: blockers of MgcRacGAP-driven Rac1 GTP hydrolysis – biochemical, ADP Hunter fluorescence, primary and confirmatory, confirmation (AID 624330); type: functional
# T2 sequence (Q9H0H5 whole entry): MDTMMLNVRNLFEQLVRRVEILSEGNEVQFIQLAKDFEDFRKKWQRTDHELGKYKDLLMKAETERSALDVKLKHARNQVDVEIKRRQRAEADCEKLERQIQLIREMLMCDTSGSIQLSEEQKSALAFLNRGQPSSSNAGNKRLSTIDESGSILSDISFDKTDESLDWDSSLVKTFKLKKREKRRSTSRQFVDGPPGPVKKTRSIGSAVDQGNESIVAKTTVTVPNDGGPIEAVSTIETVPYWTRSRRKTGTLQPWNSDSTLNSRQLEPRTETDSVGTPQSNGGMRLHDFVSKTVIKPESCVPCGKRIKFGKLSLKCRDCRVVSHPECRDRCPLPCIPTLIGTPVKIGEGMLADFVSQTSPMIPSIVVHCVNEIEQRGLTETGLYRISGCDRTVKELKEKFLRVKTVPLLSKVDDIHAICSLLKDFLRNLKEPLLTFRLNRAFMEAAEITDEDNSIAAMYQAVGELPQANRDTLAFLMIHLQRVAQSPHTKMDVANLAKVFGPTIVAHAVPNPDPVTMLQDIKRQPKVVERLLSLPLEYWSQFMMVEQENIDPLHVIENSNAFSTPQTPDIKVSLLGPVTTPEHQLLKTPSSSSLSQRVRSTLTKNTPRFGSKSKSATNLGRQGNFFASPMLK
# Protein skinhead-1 = biological target: T3, Protein skinhead-1 (Caenorhabditis elegans, UniProt P34707); type: functional
# T3 sequence (P34707 whole entry): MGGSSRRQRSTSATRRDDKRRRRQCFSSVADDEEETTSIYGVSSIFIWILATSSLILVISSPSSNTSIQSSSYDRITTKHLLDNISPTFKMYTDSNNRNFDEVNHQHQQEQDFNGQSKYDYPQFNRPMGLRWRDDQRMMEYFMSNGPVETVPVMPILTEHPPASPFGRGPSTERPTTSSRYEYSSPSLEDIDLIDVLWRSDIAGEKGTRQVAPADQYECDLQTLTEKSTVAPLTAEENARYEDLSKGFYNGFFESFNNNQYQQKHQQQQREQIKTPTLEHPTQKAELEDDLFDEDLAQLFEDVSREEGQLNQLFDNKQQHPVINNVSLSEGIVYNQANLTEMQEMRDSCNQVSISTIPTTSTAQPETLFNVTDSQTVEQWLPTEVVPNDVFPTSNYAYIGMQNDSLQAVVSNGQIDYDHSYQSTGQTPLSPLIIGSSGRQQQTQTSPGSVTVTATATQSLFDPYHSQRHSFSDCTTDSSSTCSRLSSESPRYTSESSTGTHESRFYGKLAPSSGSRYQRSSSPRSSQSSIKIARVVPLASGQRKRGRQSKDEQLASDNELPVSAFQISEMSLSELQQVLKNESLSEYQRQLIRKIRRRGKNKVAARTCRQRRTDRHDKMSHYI
# [12] = OVCAR8 cell viability loss – plate reader, dry powder samples, PAX8 project, dose response (AID 743197); type: functional, cell-based; settings: OVCAR-8
# Paired box protein Pax-8 = Paired box protein Pax-8 (Homo sapiens, UniProt Q06710); test: PAX8 transcriptional activity inhibition in RMG-I – RMG-I cells, luciferase, cherry-pick, dose response (AID 687027); type: functional, cell-based;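 also: luciferase reporter driven by Pax8 target thyroperoxidase promoter measured by SteadyGlo luminescence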
# Paired box protein Pax-8, sequence (Q06710 whole entry): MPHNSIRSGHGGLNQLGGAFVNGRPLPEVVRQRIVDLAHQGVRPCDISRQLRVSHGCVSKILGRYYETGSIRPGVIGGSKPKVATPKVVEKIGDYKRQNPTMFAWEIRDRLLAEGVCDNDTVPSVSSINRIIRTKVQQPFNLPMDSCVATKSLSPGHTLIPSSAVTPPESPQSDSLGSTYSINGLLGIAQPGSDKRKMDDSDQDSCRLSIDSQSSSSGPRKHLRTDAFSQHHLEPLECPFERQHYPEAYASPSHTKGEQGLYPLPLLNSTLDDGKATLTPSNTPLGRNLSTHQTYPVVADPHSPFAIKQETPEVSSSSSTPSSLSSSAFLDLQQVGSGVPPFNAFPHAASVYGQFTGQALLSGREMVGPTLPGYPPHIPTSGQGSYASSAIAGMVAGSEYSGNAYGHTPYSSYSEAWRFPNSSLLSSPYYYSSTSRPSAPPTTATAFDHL
# [13] = viability loss in THP-1 monocytes – THP-1 cells, cytotoxicity control for Vif-APOBEC3G degradation inhibitor project, dose response (AID 1117359); type: functional; settings: THP-1
# Estrogen receptor beta = Estrogen receptor beta (Homo sapiens, UniProt Q92731);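 also: recombinant ER-beta bound to coactivator SRC1 peptide in presence of estradiol agonist; inhibitors block coactivator peptide binding and lower the FRET signal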
# Estrogen receptor beta, sequence (Q92731 whole entry): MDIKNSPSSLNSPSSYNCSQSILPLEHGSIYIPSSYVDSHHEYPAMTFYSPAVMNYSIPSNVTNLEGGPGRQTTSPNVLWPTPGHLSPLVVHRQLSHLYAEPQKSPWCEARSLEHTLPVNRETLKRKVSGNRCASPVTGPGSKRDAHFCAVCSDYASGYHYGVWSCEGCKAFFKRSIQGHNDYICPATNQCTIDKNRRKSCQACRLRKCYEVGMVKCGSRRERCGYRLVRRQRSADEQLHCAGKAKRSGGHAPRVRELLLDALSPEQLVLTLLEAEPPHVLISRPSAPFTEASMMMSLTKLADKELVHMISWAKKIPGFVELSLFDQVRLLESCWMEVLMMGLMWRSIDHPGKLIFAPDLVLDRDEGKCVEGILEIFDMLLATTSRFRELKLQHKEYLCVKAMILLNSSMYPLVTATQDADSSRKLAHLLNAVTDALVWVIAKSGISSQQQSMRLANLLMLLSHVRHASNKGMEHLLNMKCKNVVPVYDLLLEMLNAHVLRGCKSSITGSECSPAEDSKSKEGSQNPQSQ
# [14] = viability of uninfected HEp-2 cells – cell-based, HTS, cytotoxicity control for RSV inhibitor project, dose response (AID 2410); type: functional; settings: human respiratory syncytial virus
# [15] = NIH-3T3 fibroblast cytotoxicity, dose response, cytotoxicity control, cell-based, fluorescence, Alamar Blue, secondary assay (AID 2327); type: functional;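 also: NIH-3T3 mouse fibroblasts cultured with fluconazole at 8 µg/mL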
# [16] = fluconazole-exposed Candida albicans growth modulators – fluorescence, retest, confirmation (AID 2467); type: functional, cell-based
# Cytochrome P450 2C19 = Cytochrome P450 2C19 (Homo sapiens, UniProt P33261); test: Cytochrome panel assay with activity outcomes. Panel member name: p450-cyp2c19 Compounds with AC50 equal or less than 10 uM are considered active; type: functional; settings: read-out: AC50
# Cytochrome P450 2C19, sequence (P33261 whole entry): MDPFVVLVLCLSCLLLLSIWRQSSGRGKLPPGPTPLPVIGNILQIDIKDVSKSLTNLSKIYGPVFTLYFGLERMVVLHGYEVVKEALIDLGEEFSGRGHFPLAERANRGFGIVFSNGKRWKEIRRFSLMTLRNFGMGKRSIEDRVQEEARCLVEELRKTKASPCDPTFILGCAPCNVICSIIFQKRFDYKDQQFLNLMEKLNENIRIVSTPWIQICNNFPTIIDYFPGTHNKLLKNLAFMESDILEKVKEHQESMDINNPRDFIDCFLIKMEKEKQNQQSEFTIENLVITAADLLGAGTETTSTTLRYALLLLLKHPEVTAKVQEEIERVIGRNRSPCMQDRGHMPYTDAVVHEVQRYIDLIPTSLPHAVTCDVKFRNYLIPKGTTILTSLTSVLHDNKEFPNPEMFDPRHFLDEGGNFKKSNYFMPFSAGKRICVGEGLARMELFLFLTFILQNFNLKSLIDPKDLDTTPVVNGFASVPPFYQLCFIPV
# [17] = OVCAR-3 cell viability loss – plate reader, dry powder samples, PAX8 inhibitor project, dose response (AID 743044); type: functional, cell-based
# [18] = Trypanosoma cruzi growth suppression in host cells – NIH3T3 host cells, beta-gal luminescence, confirmation (AID 2044); type: functional, cell-based;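 also: intracellular parasites grown in NIH/3T3 mouse fibroblasts as host cells; luminescent beta-galactosidase reporter signal from transgenic T. cruzi replicating inside host cells; inhibitors lower the luminescence signal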
# [19] = NIH3T3 cell viability loss – ATP luminescence, mouse fibroblasts, counter-screen, dose response (AID 2010); type: functional, cell-based;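 also: cells exposed to compound for about 90 hours before reading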
compound,measurement,setting,value
COc1ccc(-n2nnnc2-c2cnc(N3CCCC3)nc2C(F)(F)F)cc1,AC50,[1],4.77 µM (active)
same,AC50,[2],50.8 µM (active)
same,AC50,[3],4.75 µM (active)
CCOC(=O)C1C(=O)NC(SCC(N)=O)=C(C#N)C1c1ccccc1OCC (stereo not given),IC50,[4],> 55.7 µM (not active)
same,IC50,Insulin-degrading enzyme,> 6.21 µM (active)
CCNc1nc(NC(C)(C)C)nc(N2CCCC2)n1,EC50,[5],25 µM (active)
same,EC50,[6],32.9 µM (active)
C[C@H](CO)N1C[C@H](C)[C@H](CN(C)S(=O)(=O)c2cccs2)Oc2c(NC(=O)c3cnccn3)cccc2C1=O,AC50,[7],2.44 µM (active)
O=C(NCc1ccc2c(c1)OCO2)c1ccc(Br)cc1,AC50,[8],4.38 µM (active)
Cc1ccc(-c2cc(C(=O)Nc3ccc(S(=O)(=O)Nc4ncccn4)cc3)[nH]n2)c(O)c1C,IC50,[4],> 55.7 µM (not active)
same,IC50,Insulin-degrading enzyme,17.7 µM (not active)
Cc1cccc2cc(CN(Cc3nnnn3C3CCCCC3)C3CCCC3)c3nnnn3c12,AC50,[8],2.18 µM (active)
Nc1cc([N+](=O)[O-])ccc1Nc1ccc(O)cc1,AC50,[9],0.269 µM (active)
same,CC50,[10],> 40 µM (active)
same,IC50,[11],38.2 µM (active)
O=S(=O)(c1ccc(N2CCCC2)cc1)C(F)(F)F,IC50,Protein skinhead-1,> 100 µM (inactive)
C[C@H]1CN([C@@H](C)CO)C(=O)c2cc(NS(=O)(=O)c3ccc(Cl)cc3)ccc2O[C@H]1CN(C)Cc1ccc(Cl)c(Cl)c1,AC50,[12],> 70 µM (inactive)
same,AC50,Paired box protein Pax-8,7.5 µM (active)
CC(C)N(C(=O)CO/N=C/c1cccc([N+](=O)[O-])c1)C(C)C,CC50,[13],> 40 µM (active)
C[C@@H]1CN([C@H](C)CO)C(=O)c2cccc(NC(=O)Nc3ccc(C(F)(F)F)cc3)c2O[C@@H]1CN(C)Cc1ccc(Cl)c(Cl)c1,AC50,[7],2.26 µM (active)
Cc1sc(NC(=O)C2=COCCO2)nc1-c1ccc(Cl)cc1,IC50,Protein skinhead-1,> 100 µM (inactive)
C=CCn1c(SCc2cc(C(=O)OC)c(C)o2)nnc1-c1ccncc1,IC50,Estrogen receptor beta,> 50 µM (not active)
C[C@H]1CN([C@@H](C)CO)C(=O)Cc2cc(NC(=O)Nc3cccc4ccccc34)ccc2O[C@@H]1CN(C)Cc1ccc(C(F)(F)F)cc1,AC50,[7],2.3 µM (active)
O=C(Nc1ccc(SC(F)F)cc1)c1ccccc1F,CC50,[14],> 50 µM (active)
same,IC50,Protein skinhead-1,23.1 µM (active)
COc1ccccc1NC(=O)c1ccc(CN2CCOCC2)cc1,IC50,Protein skinhead-1,> 100 µM (inactive)
C[C@H](CO)N1C[C@H](C)[C@H](CN(C)Cc2ccc(Oc3ccccc3)cc2)Oc2c(NC(=O)CCCCCC(=O)Nc3ccccc3N)cccc2C1=O,AC50,[7],2.36 µM (active)
COC(=O)c1ccc(C(=O)OC)c(NC(=O)CSc2cccc[n+]2[O-])c1,EC50,[15],> 160 µM (inconclusive)
same,EC50,[16],1.34 µM (active)
same,CC50,[10],> 40 µM (active)
CCCCc1ccc(NC(=O)CC(C)(C)C)cc1,CC50,[13],> 40 µM (active)
C/C(=C\C(=S)Nc1ccccc1)Nc1ccc2ccccc2c1,CC50,[10],36.2 µM (active)
CCOc1ccc2nc(NC(=O)c3ccc(S(=O)(=O)N4CCOCC4)cc3)sc2c1,AC50,Cytochrome P450 2C19,2.82 µM (inconclusive)
same,IC50,Protein skinhead-1,> 100 µM (inactive)
c1ccc(-c2nc(-c3ccncc3)no2)cc1,IC50,Protein skinhead-1,16.3 µM (active)
C[C@@H]1CN([C@H](C)CO)C(=O)c2cc(NC(=O)Nc3ccc(C(F)(F)F)cc3)ccc2O[C@@H](C)CCCCO[C@H]1CN(C)C(=O)NC1CCCCC1,AC50,[12],47.2 µM (active)
same,AC50,Paired box protein Pax-8,2.8 µM (active)
same,AC50,[17],27.4 µM (active)
CC1(c2cc([N+](=O)[O-])cc([N+](=O)[O-])c2)CC(C)(C)N(C(=O)c2ccccc2)c2ccccc21 (stereo not given),EC50,[18],0.17 µM (active)
same,CC50,[10],> 40 µM (active)
same,EC50,[19],10.7 µM (active)
C[C@@H]1CN([C@@H](C)CO)C(=O)Cc2cc(NC(=O)Nc3ccc(C(F)(F)F)cc3)ccc2O[C@@H]1CN(C)Cc1ccc(Cl)c(Cl)c1,AC50,[7],1.85 µM (active)
C[C@H](CO)N1C[C@H](C)[C@@H](CN(C)C(=O)C2CCCCC2)OCCCC[C@H](C)Oc2ccc(NS(=O)(=O)c3ccc(Cl)cc3)cc2C1=O,AC50,Paired box protein Pax-8,8.51 µM (active)
same,AC50,[17],24.4 µM (active)
Cc1cc(C(=O)Nc2cccc3c2O[C@@H](CN(C)Cc2ccc(C(=O)Nc4ccccc4N)cc2)[C@@H](C)CN([C@H](C)CO)C3=O)n(C)n1,AC50,[7],2.45 µM (active)
